Results taken from US4110368A, “Hydro substituted prostanoic acids and esters” (American Cyanamid Company, priority 1977, dated 1978).

Key:
[1] = test system: ulcerogenic properties of indomethacin; test: protection against indomethacin-induced ulcers (ulcer score); type: in vivo, rat; details: two half doses by gavage, indomethacin 20 mg./kg. s.c., ulcer scale 0-4, score 2.5 or lower = active
Protocol: The compounds of this invention provide protection against the ulcerogenic properties of indomethacin. This assay was carried out in the following manner.
Rats were starved for 48 hours (water was given ad libitum). Indomethacin (20 mg./kg. of body weight) was administered by the subutaneous route and one-half the dose of the test compound was administered by gavage at the same time. After 3 hours, the second half of the test compound was administered also by Gavage. Five hours after the administration of indomethacin the animals were decapitated and the stomachs removed. The stomachs were washed with distilled water, blotted on gauze, cut along the larger curvature, and the contents rinsed with distilled water. The stomachs were spread out, pinned on a cork and visualized under magnifying glass for ulcers. The criteria for scoring of ulcers was as previously reported. [Abdel-Galil et al. Brit. J. Pharmac. Chemotherapy 33:1-14 (1968)].
1 -- Petechial hemorrhage or pin point ulcer
3 -- Many ulcers, a few large
4 -- Many ulcers, mainly large
Control animals treated with indomethacin but not test compound consistently give scores of about 3.0-3.5. Control animals treated with neither indomethacin nor test compound give scores of about 0.5-0.8. Compounds producing a score of 2.5 or lower are considered to be active.

gastric acid secretion = gastric acid secretion inhibition, modified Shay rat procedure; type: in vivo, rat (male, CFE strain); details: intraduodenal dose 100 mg./kg. of body weight; 3 hours; 20% or more = active
Protocol: The novel compounds of the present invention are also effective inhibitors of gastric acid secretion and of ulcer development in experimental animals, and thus are potentially valuable as agents for the control of gastric acid secretion and of gastric erosion and as anti-ulcer agents. Gastric acid secretion inhibitory action is usually measured by the "Shay rat" procedure ^(1,2) with some modifications as follows.
The rats (male, CFE strain) were starved for 48 hours (water was given ad libitum) to permit evacuation of stomach contents. On the morning of the experiment, under ether anesthesia, the abdominal region was shaved and a midline incision (1-1 1/2 inch) was made with a scapel. […]
The abdominal cavity was exposed by cutting with scissors and the esophagus close to the stomach was clamped off with a hemostat, the stomach was removed by cutting above the hemostat (the esophagus was cut) and between the two sutures. […] The supernatant was collected, volume measured and recorded, 2 drops of a phenolphthalein indicator (1% in 95% ethanol) were added and the solution was titrated with 0.02N NaOH (or with 0.04N NaOH when large volumes of stomach contents were encountered) to pH 8.4 (because of usual coloring of the stomach contents, phenolphthalein was only used to permit visual indication that the end point was near) and the amount of acid present was calculated. […]

[2] = total oral dose 25 mg./kg. of body weight, control 3.2

## CCCCC[C@@H](O)/C=C/[C@H]1CCC(=O)[C@@H]1CCCCSCC(=O)O (relative stereo) [9-oxo-3-thia-15-epi-hydroxy-13-trans-prostenoic acid]
[1]; [2]
  Score, Treated: 2.3

## CCCCCC(O)/C=C/C1CCC(=O)C1CCCCSCC(=O)O (stereo not drawn) [9-oxo-3-thia-15-hydroxy-13-trans-prostenoic acid]
[1]; [2]
  Score, Treated: 1.8

## CCCCCC(O)/C=C/C1CCC(=O)C1(C)CCCCCCC(=O)O (stereo not drawn) [9-oxo-8β-methyl-15-hydroxy-13-trans-prostenoic acid]
[1]; total oral dose 12.5 mg./kg. of body weight, control 3.0
  Score, Treated: 2.0

## CCCCCC(O)/C=C/[C@H]1CCC(=O)[C@@H]1CCCCCC(CC)C(=O)O (relative stereo)
[1]; total oral dose 50 mg./kg. of body weight, control 3.0
  Score, Treated: 2.2

## CCCCC(CC)C(O)/C=C/[C@H]1CCC(=O)[C@@H]1CCCCCCC(=O)O (relative stereo) [9-oxo-15-hydroxy-16-ethyl-13-trans-prostenoic acid]
[1]; [2]
  Score, Treated: 1.7

## CCCCCC(O)/C=C/[C@H]1CCC(=O)[C@@H]1CCCCC(C)(C)CC(=O)O (relative stereo) [9-oxo-15-hydroxy-3,3-dimethyl-13-trans-prostenoic acid]
Gastric acid secretion
  Percent Inhibition (gastric acid secretion): 51%

## CCCCCC(O)/C=C\[C@H]1CCC(=O)[C@@H]1CCCCCCC(=O)O (relative stereo) [9-oxo-15-hydroxy-13-cis-prostenoic acid, 15-hydroxy-9-oxo-13-cis-prostenoic acid]
[1]; total oral dose 100 mg./kg. of body weight, control 3.0
  Score, Treated: 1.3
